Source: patent US11833238B2, “Topical testosterone (T) for promoting hair growth-containing formulations” (priority 2012, dated 2023)

How the values were obtained:
[1] = tested on: eyelash hair growth; experiment: appearance of lashes and hair around the eyes of glaucoma patients administering bimatoprost in only one eye (slit lamp biomicroscope); assay type: in vivo, human; settings: 0.03% ophthalmic solution, more than 3 months, treated vs control eye
Method: A study is initiated to systematically evaluate the appearance of lashes and hair around the eyes of patients who are administering bimatoprost in only one eye. The study involves 10 subjects, 5 male, 5 female, average age 70 years, (ranging from 50-94 years). All patients have glaucoma. Each subject is treated daily by the topical application of one drop of bimatoprost at a dosage of 1.5 µg/ml/eye/day (0.03%, by weight, ophthalmic solution, sold under the names Lumigan® and Latisse® by Allergan, Irvine, Calif., U.S.A.) to the region of one eye by instilling the drop onto the surface of the eye. The region of the fellow control eye is not treated with bimatoprost and served as a control.
In the course of treatment with eye drops, there is typically spontaneous tearing, and excess fluid from the drops and associated tears gathers at the lid margins. In the course of wiping the drug containing fluid from the lid margins and adjacent lid, a thin film of the fluid is routinely spread to contact the adjacent skin of the lid area.
The study is limited to subjects who have administered bimatoprost to one eye for more than 3 months. The mean duration of exposure to bimatoprost prior to assessing the parameter of lash growth between the control and study eye is 129 days (range 90-254 days). Observations are made under high magnification at the slit lamp biomicroscope. Documentation of differences between the control and treatment areas is accomplished using a camera specially adapted for use with the slit lamp biomicroscope. The results of the observations are as follows: Length of lashes: Increased length of eyelashes is regularly observed on the side treated with bimatoprost. The difference in length varies from approximately 10% to as much as 30%. […] In areas where there are a large number of lashes in the control eye, the increased number of lashes in the bimatoprost-treated eye gave the lashes on the treated side a more thickly matted overall appearance. […] These long, thick lash-like hairs were present in the central portion of the lids of several patients in a linear arrangement just above the lash line. Hairs are present at similar locations in the control eyes but are by contrast thinner or more fine in appearance, have less luster and pigment and are more flat against the skin of the lid typical of vellus or intermediate hairs. In several patients, lash-like terminal hairs grow luxuriantly in the medial canthal area in the treated eye. In the corresponding control eye, vellus hairs are seen at the same location. Lash-like hairs are also present in the lateral canthal area of the treated eye but not the control eye in several subjects. […]

[2] = powder; cited from earlier work

For CCNC(=O)CCC/C=C\C[C@@H]1[C@@H](/C=C/[C@@H](O)CCc2ccccc2)[C@H](O)C[C@@H]1O [bimatoprost, (Z)-7-[(1R,2R,3R,5S)-3,5Dihydroxy-2-[(1E,3S)-3-hydroxy-5-phenyl-1-pentenyl]cyclopentyl]-5-N-ethylheptenamide], the “Auxiliary lash-like hair growth” value [1] was “apparent increase in lash-like hair in transitional areas adjacent to areas of normal lash distribution”, the Number of lashes [1] was “Increased numbers of lashes are observed in the treated eye of each patient” and the “Perpendicular angulation of hairs” value [1] was “leave the surface of the skin at a more acute angle”. For the same compound, the “growth of vellus hair on lids” value [1] was “vellus hairs are increased in number, appear more robust and are much longer and thicker in treated than in control eyes”, the “solubility in ethyl alcohol” value [2] was “very soluble” and the “solubility in methyl alcohol” value [2] was “very soluble”. The solubility in water [2] was “slightly soluble”.
